Assay results from publication PMC6063448, “Antimicrobial activity of linear lipopeptides derived from BP100 towards plant pathogens” (PLoS ONE, 2018).

Legend:
[1] = test system: Erwinia amylovora PMV6076; experiment: MIC, growth inhibition in microtiter plates (TSB); assay type: cell-based; settings: Ea, 25°C, 48 h, OD 600 nm, lowest concentration with no growth, given as interval of tested concentrations, three replicates, experiment repeated twice
In short: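 Agar-grown cells in water (10^8 CFU mL^-1 stock suspension) + serially diluted peptide (1 mM water stock) in TSB; 25°C, 48 h, OD600 hourly; no-growth endpoint gives MIC.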

[2] = test system: Xanthomonas arboricola pv. pruni CFBP5563; experiment: MIC, growth inhibition in microtiter plates (TSB); assay type: cell-based; settings: Xap, 25°C, 48 h, OD 600 nm, lowest concentration with no growth, given as interval of tested concentrations, three replicates, experiment repeated twice
In short: (§1)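 OD600 readout, hourly over 48 h at 25°C, 20 s shaking; TSB medium; inoculum from 10^8 CFU mL^-1 water suspension; triplicates, experiment run twice; MIC = lowest concentration showing no growth at endpoint.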

[3] = test system: Pseudomonas syringae pv. actinidiae Psa3700.1.1; experiment: MIC, growth inhibition in microtiter plates (TSB); assay type: cell-based; settings: Psa, 25°C, 48 h, OD 600 nm, lowest concentration with no growth, given as interval of tested concentrations, three replicates, experiment repeated twice
In short: as §1

[4] = test system: Xanthomonas fragariae Xf349-9A; experiment: MIC, growth inhibition in microtiter plates (TSB); assay type: cell-based; settings: Xf, 25°C, 48 h, OD 600 nm, lowest concentration with no growth, given as interval of tested concentrations, three replicates, experiment repeated twice
In short: as §1

[5] = test system: Pseudomonas syringae pv. syringae EPS94; experiment: MIC, growth inhibition in microtiter plates (TSB); assay type: cell-based; settings: Pss, 25°C, 48 h, OD 600 nm, lowest concentration with no growth, given as interval of tested concentrations, three replicates, experiment repeated twice
In short: as §1

[6] = test system: Xanthomonas axonopodis pv. vesicatoria 2133–2; experiment: MIC, growth inhibition in microtiter plates (TSB); assay type: cell-based; settings: Xav, 25°C, 48 h, OD 600 nm, lowest concentration with no growth, given as interval of tested concentrations, three replicates, experiment repeated twice
In short: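 Peptides, dissolved in water at 1 mM and filter-sterilized, were diluted and mixed with bacterial suspension (10^8 CFU mL^-1 before mixing) in TSB. Plates were incubated at 25°C with shaking, and OD600 was read hourly for 48 h. MIC was the lowest concentration with no growth at the end.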

[7] = test system: T1, proteinase K; experiment: Susceptibility to protease degradation; assay type: in vitro ADME; settings: proteinase K (isolated protease) in TRIS buffer; 50 μg/mL peptide, 1 μg/mL proteinase K, 100 mM TRIS buffer pH 7.6, 25°C, 60 min; decrease of HPLC peak area (220 nm); read-out: Digestion with proteinase K (percentage of degraded peptide)
T1 construct: purchased Sigma-Aldrich Corporation, Spain
Experimental: Digestion of BP100 and of 16 selected lipopeptides was carried out by treating 50 μg/mL peptide with 1 μg/mL proteinase K (Sigma-Aldrich Corporation, Spain) in 100 mM TRIS buffer, pH 7.6, at 25°C. The peptide cleavage after 60 min was determined by HPLC using a Kromasil (4.6 × 40 mm; 3 μm particle size) C18 reverse-phase column. Linear gradients of 0.1% aqueous TFA and 0.1% TFA in CH3CN were run from 0.98:0.02 to 0:1 over 12 min with UV detection at 220 nm. Digestion was estimated as the percentage of degraded lipopeptide calculated from the decrease of the HPLC peak area of the native peptide.

[8] = test system: tobacco leaves; experiment: Effect of peptide infiltration on tobacco leaves; assay type: in vivo; settings: for Size of the lesions in infiltrated tobacco leaves (diameter): 250 μM, 100 μL infiltrated into mesophyll, measured after 48 h; for Reaction observed in the area of infiltration of tobacco leaves: in contrast to melittin
Experimental: BP100 and the 36 lipopeptides were evaluated for their effect upon infiltration on tobacco leaves as described previously. Peptide solutions of 50, 150 and 250 μM were infiltrated (100 μL) into the mesophylls of fully expanded tobacco leaves. Infiltrations were carried out in a single leaf, and for each peptide and dose, at least three leaves randomly distributed in different plants were inoculated. Control infiltrations with water (negative control) or melittin (positive control) at the same molar concentration were performed. The appearance of symptoms on the leaves was followed for 48 h after infiltration and measured as a lesion diameter.

Compound: CCCCCC(=O)NCCCC[C@H](NC(=O)[C@H](CC(C)C)NC(=O)[C@H](CCCCN)NC(=O)[C@H](CCCCN)NC(C)=O)C(=O)N[C@@H](CCCCN)C(=O)N[C@@H](CCCCN)C(=O)N[C@H](C(=O)N[C@@H](CC(C)C)C(=O)N[C@@H](CCCCN)C(=O)N[C@@H](Cc1ccc(O)cc1)C(=O)N[C@@H](CC(C)C)C(N)=O)[C@@H](C)CC [BP371, Ac-KKLK(COC5H11)KKILKYL-NH2]
- MIC [1]: 3.1 to 6.2 µM
- MIC [2]: 3.1 to 6.2 µM
- MIC [3]: 3.1 to 6.2 µM
- MIC [4]: 3.1 to 6.2 µM
- MIC [5]: 3.1 to 6.2 µM
- MIC [6]: 3.1 to 6.2 µM

Compound: CCCCCC(=O)NCCCC[C@H](NC(=O)[C@H](Cc1ccc(O)cc1)NC(=O)[C@H](CCCCN)NC(=O)[C@H](CC(C)C)NC(=O)[C@@H](NC(=O)[C@H](CCCCN)NC(=O)[C@H](CCCCN)NC(=O)[C@H](Cc1ccccc1)NC(=O)[C@H](CC(C)C)NC(=O)[C@H](CCCCN)NC(=O)[C@H](CCCCN)NC(C)=O)[C@@H](C)CC)C(N)=O [BP378, Ac-KKLFKKILKYK(COC5H11)-NH2]
- MIC [1]: 3.1 to 6.2 µM
- MIC [2]: 3.1 to 6.2 µM
- MIC [3]: 3.1 to 6.2 µM
- MIC [4]: 3.1 to 6.2 µM
- MIC [5]: 6.2 to 12.5 µM
- MIC [6]: 3.1 to 6.2 µM
- metabolised at 1 h, 50 μg/mL [7]: 45%
- Size of the lesions in infiltrated tobacco leaves (diameter) [8]: 13.2 ± 4.7 mm
- Reaction observed in the area of infiltration of tobacco leaves [8]: not a typical necrosis

Compound: CCCC(=O)NCCCC[C@H](NC(=O)[C@H](CCCCN)NC(C)=O)C(=O)N[C@@H](CC(C)C)C(=O)N[C@@H](Cc1ccccc1)C(=O)N[C@@H](CCCCN)C(=O)N[C@@H](CCCCN)C(=O)N[C@H](C(=O)N[C@@H](CC(C)C)C(=O)N[C@@H](CCCCN)C(=O)N[C@@H](Cc1ccc(O)cc1)C(=O)N[C@@H](CC(C)C)C(N)=O)[C@@H](C)CC [BP381, Ac-KK(COC3H7)LFKKILKYL-NH2]
- MIC [1]: 3.1 to 6.2 µM
- MIC [2]: 3.1 to 6.2 µM
- MIC [3]: 3.1 to 6.2 µM
- MIC [4]: 1.6 to 3.1 µM
- MIC [5]: 3.1 to 6.2 µM
- MIC [6]: 1.6 to 3.1 µM
- metabolised at 1 h, 50 μg/mL [7]: 53%
- Size of the lesions in infiltrated tobacco leaves (diameter) [8]: 10.8 ± 1.9 mm

Compound: CCCCCC(=O)NCCCC[C@H](NC(=O)[C@H](CCCCN)NC(=O)[C@H](CCCCN)NC(=O)[C@H](Cc1ccccc1)NC(=O)[C@H](CC(C)C)NC(=O)[C@H](CCCCN)NC(=O)[C@H](CCCCN)NC(C)=O)C(=O)N[C@@H](CC(C)C)C(=O)N[C@@H](CCCCN)C(=O)N[C@@H](Cc1ccc(O)cc1)C(=O)N[C@@H](CC(C)C)C(N)=O [BP374, Ac-KKLFKKK(COC5H11)LKYL-NH2]
- MIC [1]: 3.1 to 6.2 µM
- MIC [2]: 6.2 to 12.5 µM
- MIC [3]: 3.1 to 6.2 µM
- MIC [4]: 3.1 to 6.2 µM
- MIC [5]: 6.2 to 12.5 µM
- MIC [6]: 6.2 to 12.5 µM

Compound: CCCC(=O)NCCCC[C@H](NC(=O)[C@H](CCCCN)NC(=O)[C@H](Cc1ccccc1)NC(=O)[C@H](CC(C)C)NC(=O)[C@H](CCCCN)NC(=O)[C@H](CCCCN)NC(C)=O)C(=O)N[C@H](C(=O)N[C@@H](CC(C)C)C(=O)N[C@@H](CCCCN)C(=O)N[C@@H](Cc1ccc(O)cc1)C(=O)N[C@@H](CC(C)C)C(N)=O)[C@@H](C)CC [BP385, Ac-KKLFKK(COC3H7)ILKYL-NH2]
- MIC [1]: 6.2 to 12.5 µM
- MIC [2]: 0.8 to 1.6 µM
- MIC [3]: 6.2 to 12.5 µM
- MIC [4]: 1.6 to 3.1 µM
- MIC [5]: 6.2 to 12.5 µM
- MIC [6]: 0.8 to 1.6 µM

Compound: CCCC(=O)NCCCC[C@H](NC(=O)[C@H](CCCCN)NC(=O)[C@H](CC(C)C)NC(=O)[C@@H](NC(=O)[C@H](CCCCN)NC(=O)[C@H](CCCCN)NC(=O)[C@H](Cc1ccccc1)NC(=O)[C@H](CC(C)C)NC(=O)[C@H](CCCCN)NC(=O)[C@H](CCCCN)NC(C)=O)[C@@H](C)CC)C(=O)N[C@@H](CC(C)C)C(N)=O [BP389, Ac-KKLFKKILKK(COC3H7)L-NH2]
- MIC [1]: 3.1 to 6.2 µM
- MIC [2]: 0.8 to 1.6 µM
- MIC [3]: 3.1 to 6.2 µM
- MIC [4]: 1.6 to 3.1 µM
- MIC [5]: 6.2 to 12.5 µM
- MIC [6]: 0.8 to 1.6 µM
- metabolised at 1 h, 50 μg/mL [7]: 29%
- Size of the lesions in infiltrated tobacco leaves (diameter) [8]: 9.0 ± 2.9 mm

Compound: CCCC(=O)NCCCC[C@H](NC(=O)[C@H](Cc1ccc(O)cc1)NC(=O)[C@H](CCCCN)NC(=O)[C@H](CC(C)C)NC(=O)[C@@H](NC(=O)[C@H](CCCCN)NC(=O)[C@H](CCCCN)NC(=O)[C@H](Cc1ccccc1)NC(=O)[C@H](CC(C)C)NC(=O)[C@H](CCCCN)NC(=O)[C@H](CCCCN)NC(C)=O)[C@@H](C)CC)C(N)=O [BP390, Ac-KKLFKKILKYK(COC3H7)-NH2]
- MIC [1]: 3.1 to 6.2 µM
- MIC [2]: 6.2 to 12.5 µM
- MIC [3]: 6.2 to 12.5 µM
- MIC [4]: 3.1 to 6.2 µM
- MIC [5]: 6.2 to 12.5 µM
- MIC [6]: 3.1 to 6.2 µM

Compound: CCCC(=O)NCCCC[C@H](NC(=O)[C@@H](NC(=O)[C@H](CCCCN)NC(=O)[C@H](CCCCN)NC(=O)[C@H](Cc1ccccc1)NC(=O)[C@H](CC(C)C)NC(=O)[C@H](CCCCN)NC(=O)[C@H](CCCCN)NC(C)=O)[C@@H](C)CC)C(=O)N[C@@H](CCCCN)C(=O)N[C@@H](Cc1ccc(O)cc1)C(=O)N[C@@H](CC(C)C)C(N)=O [BP387, Ac-KKLFKKIK(COC3H7)KYL-NH2]
- MIC [1]: 3.1 to 6.2 µM
- MIC [2]: 3.1 to 6.2 µM
- MIC [3]: 3.1 to 6.2 µM
- MIC [4]: 1.6 to 3.1 µM
- MIC [5]: 3.1 to 6.2 µM
- MIC [6]: 1.6 to 3.1 µM
- metabolised at 1 h, 50 μg/mL [7]: 15%
- Size of the lesions in infiltrated tobacco leaves (diameter) [8]: 9.2 ± 0.96 mm

Compound: CCCCCCCCCCCC(=O)NCCCC[C@H](NC(=O)[C@H](CC(C)C)NC(=O)[C@@H](NC(=O)[C@H](CCCCN)NC(=O)[C@H](CCCCN)NC(=O)[C@H](Cc1ccccc1)NC(=O)[C@H](CC(C)C)NC(=O)[C@H](CCCCN)NC(=O)[C@H](CCCCN)NC(C)=O)[C@@H](C)CC)C(=O)N[C@@H](Cc1ccc(O)cc1)C(=O)N[C@@H](CC(C)C)C(N)=O [BP400, Ac-KKLFKKILK(COC11H23)YL-NH2]
- MIC [1]: >25 µM
- MIC [2]: 1.6 to 3.1 µM
- MIC [3]: >25 µM
- MIC [4]: 3.1 to 6.2 µM
- MIC [5]: >25 µM
- MIC [6]: 1.6 to 3.1 µM
- Reaction observed in the area of infiltration of tobacco leaves [8]: not a typical necrosis

Compound: CC[C@H](C)[C@H](NC(=O)[C@H](CCCCN)NC(=O)[C@H](CCCCN)NC(=O)[C@H](Cc1ccccc1)NC(=O)[C@H](CC(C)C)NC(=O)[C@H](CCCCN)NC(=O)[C@@H](N)CCCCN)C(=O)N[C@@H](CC(C)C)C(=O)N[C@@H](CCCCN)C(=O)N[C@@H](Cc1ccc(O)cc1)C(=O)N[C@@H](CC(C)C)C(N)=O [BP100, H-Lys-Lys-Leu-Phe-Lys-Lys-Ile-Leu-Lys-Tyr-Leu-NH2]
- MIC [1]: 3.1 to 6.2 µM
- MIC [2]: 1.6 to 3.1 µM
- MIC [3]: 1.6 to 3.1 µM
- MIC [4]: 3.1 to 6.2 µM
- MIC [5]: 3.1 to 6.2 µM
- MIC [6]: 3.1 to 6.2 µM
- metabolised at 1 h, 50 μg/mL [7]: 24%
